Experiments:
Format in all cases: in vivo
barnyard grass = assay: Test of herbicidal activity, post-seedling stem and leaf spray in greenhouse, barnyard grass; details: for herbicidal activity against barnyard grass compared with Control compounds A, B and C: at different doses, summary of Table 5; for Barnyard grass (%) control effect: post-seedling stem and leaf spray
Experimental: (§1) Seeds of broadleaf weeds (abutilon, Solanum nigrum) or gramineous weeds (crabgrass, barnyard grass) were sown into nutrient soil in plastic cups, respectively, and then covered with soil, compacted, watered, and further cultivated in a greenhouse by conventional methods. The stems and leaves of the weeds were sprayed when the weeds reached the 2- to 3-leaf stage. The test compounds of the present application were dissolved in acetone respectively, followed by addition of Tween 80. The solution was diluted with a certain amount of water to a certain solubility, and then sprayed onto the plants using a spray tower. The test was repeated three times. After drying naturally in the shade, the plants were put in a greenhouse and managed according to conventional methods. The growth and development of weeds were observed, and the control effect of the test agent on weeds was checked visually periodically, which was expressed by 0-100%, with “0” representing no control effect, and “100%” representing complete killing or severe inhibition.

abutilon = assay: Test of herbicidal activity, post-seedling stem and leaf spray in greenhouse, abutilon; details: for herbicidal activity against abutilon compared with Control compounds A, B and C: at different doses, summary of Table 5; for Abutilon (%) control effect: post-seedling stem and leaf spray
Experimental: as §1

crabgrass = assay: Test of herbicidal activity, post-seedling stem and leaf spray in greenhouse, crabgrass; details: for herbicidal activity against crabgrass compared with Control compounds A, B and C: at different doses, summary of Table 5; for Crabgrass (%) control effect: post-seedling stem and leaf spray
Experimental: as §1

Solanum nigrum = assay: Test of herbicidal activity, post-seedling stem and leaf spray in greenhouse, Solanum nigrum; details: for herbicidal activity against Solamum nigrum compared with Control compounds A, B and C: at different doses, summary of Table 5; for Solanum nigrum (%) control effect: post-seedling stem and leaf spray
Experimental: as §1

rice = assay: Safety testing on rice, stem and leaf spray in greenhouse; details: for inhibitory effect on rice (crop safety): at different doses, as compared to Control compounds A, B, and C, summary of Table 6; for Rice (%) safety (crop damage): stem and leaf spray
Experimental: (§2) The seeds of corn and rice were sown into nutrient soil in plastic cups, respectively, then covered with soil, compacted, watered, and further cultivated in a greenhouse by conventional methods. The stems and leaves of the crops were sprayed when the crops reached the 2- to 3-leaf stage. The test compounds of the present application were dissolved in acetone, followed by addition of Tween 80. The solution was then diluted with a certain amount of water to a certain solubility, and sprayed onto the plants using a spray tower. The test was repeated three times. After drying naturally in the shade, the plants were put in a greenhouse and managed according to conventional methods. The growth and development of corn and rice were observed, and the safety of the test agent on corn and rice was checked visually periodically. A safety grading standard was represented by 0-100%, with “O” representing no damage to crops, and “100%” representing complete killing or severe inhibition of crops.

corn = assay: Safety testing on corn, stem and leaf spray in greenhouse; details: for inhibitory effect on corn (crop safety): at different doses, as compared to Control compounds A, B, and C, summary of Table 6; for Corn (%) safety (crop damage): stem and leaf spray
Experimental: as §2

[1] = dose 300 g a.i/ha, 0 = no control effect, 100% = complete killing or severe inhibition
[2] = dose 300 g a.i/ha, 0 = no damage to crops, 100% = complete killing or severe inhibition

SMILES	herbicidal activity against barnyard grass compared with Control compounds A, B and C (barnyard grass)	Barnyard grass (%) control effect (barnyard grass; dose 37.5 g a.i/ha) [%]	Barnyard grass (%) control effect (barnyard grass; dose 75 g a.i/ha) [%]	Barnyard grass (%) control effect (barnyard grass; dose 150 g a.i/ha) [%]	Barnyard grass (%) control effect (barnyard grass; dose 300 g a.i/ha) [%]	herbicidal activity against abutilon compared with Control compounds A, B and C (abutilon)	Abutilon (%) control effect (abutilon; dose 37.5 g a.i/ha) [%]	Abutilon (%) control effect (abutilon; dose 75 g a.i/ha) [%]	Abutilon (%) control effect (abutilon; dose 150 g a.i/ha) [%]	Abutilon (%) control effect (abutilon; [1]) [%]	herbicidal activity against crabgrass compared with Control compounds A, B and C (crabgrass)	Crabgrass (%) control effect (crabgrass; dose 37.5 g a.i/ha) [%]	Crabgrass (%) control effect (crabgrass; dose 75 g a.i/ha) [%]	Crabgrass (%) control effect (crabgrass; dose 150 g a.i/ha) [%]	Crabgrass (%) control effect (crabgrass; dose 300 g a.i/ha) [%]	herbicidal activity against Solamum nigrum compared with Control compounds A, B and C (Solanum nigrum)	Solanum nigrum (%) control effect (Solanum nigrum; dose 37.5 g a.i/ha) [%]	Solanum nigrum (%) control effect (Solanum nigrum; dose 75 g a.i/ha) [%]	Solanum nigrum (%) control effect (Solanum nigrum; dose 150 g a.i/ha) [%]	Solanum nigrum (%) control effect (Solanum nigrum; dose 300 g a.i/ha) [%]	other results
Cc1nn(Cc2c(S(C)(=O)=O)ccc(C(=O)C3C(=O)CCCC3=O)c2Cl)c(=O)o1 [Compound 1]	better herbicidal activities	55	80	90	98	better herbicidal activities	65	90	98	100	better herbicidal activities	50	75	85	95	better herbicidal activities	60	90	95	100	
CCS(=O)(=O)c1ccc(C(=O)C2C(=O)CCCC2=O)c(Cl)c1Cn1nc(C)oc1=O [Compound 6]																					inhibitory effect on rice (crop safety) (rice): no significant inhibitory effect; Rice (%) safety (crop damage) (rice; dose 37.5 g a.i/ha): 0%; Rice (%) safety (crop damage) (rice; dose 75 g a.i/ha): 0%; Rice (%) safety (crop damage) (rice; dose 150 g a.i/ha): 5%; Rice (%) safety (crop damage) (rice; dose 300 g a.i/ha): 10%; inhibitory effect on corn (crop safety) (corn): no significant inhibitory effect; Corn (%) safety (crop damage) (corn; dose 37.5 g a.i/ha): 0%; Corn (%) safety (crop damage) (corn; dose 75 g a.i/ha): 0%; Corn (%) safety (crop damage) (corn; dose 150 g a.i/ha): 0%; Corn (%) safety (crop damage) (corn; [2]): 5%
CCOC1=C(C(=O)c2ccc(S(C)(=O)=O)c(Cn3nc(C)oc3=O)c2Cl)C(=O)CCC1 [Compound 32]	better herbicidal activities	55	80	90	95	better herbicidal activities	65	90	98	100	better herbicidal activities	50	75	85	90	better herbicidal activities	60	90	95	100	
Cc1nn(Cc2c(S(C)(=O)=O)ccc(C(=O)c3c(C)nn(C)c3O)c2Cl)c(=O)o1 [Compound 58]																					inhibitory effect on rice (crop safety) (rice): no significant inhibitory effect; Rice (%) safety (crop damage) (rice; dose 37.5 g a.i/ha): 0%; Rice (%) safety (crop damage) (rice; dose 75 g a.i/ha): 0%; Rice (%) safety (crop damage) (rice; dose 150 g a.i/ha): 0%; Rice (%) safety (crop damage) (rice; dose 300 g a.i/ha): 5%; inhibitory effect on corn (crop safety) (corn): no significant inhibitory effect; Corn (%) safety (crop damage) (corn; dose 37.5 g a.i/ha): 0%; Corn (%) safety (crop damage) (corn; dose 75 g a.i/ha): 0%; Corn (%) safety (crop damage) (corn; dose 150 g a.i/ha): 0%; Corn (%) safety (crop damage) (corn; [2]): 0%

Source: patent US20250333388A1, “OXADIAZOLONE COMPOUNDS AND HERBICIDAL COMPOSITIONS AND USES THEREOF” (SHANDONG BINNONG TECHNOLOGY CO., LTD., priority 2023, published 2025)
